Patent US20020147230A1, “Aminal Diones as potassium channel openers” (priority 2001, published 2002)
Read-outs that look alike come from different tables or passages of the source. Blank lines part the entries; values can stand above or below the molecule they belong to.

Key:
[1] = test system: primary cultured guinea-pig urinary bladder (GPB) cells; assay: Membrane hyperpolarization (MHP) assay, DiBAC(4)3 / FLIPR; type: cell-based; settings: for EC50: membrane hyperpolarization in guinea-pig bladder cells
Protocol: Compounds were evaluated for potassium channel opening activity using primary cultured guinea-pig urinary bladder (GPB) cells.
For the preparation of urinary bladder smooth muscle cells, urinary bladders were removed from male guinea-pigs (Hartley, Charles River, Wilmington, Mass.) weighing 300-400 g and placed in ice-cold Ca^2+-free Krebs solution (composition, mM: KCl, 2.7; KH2PO4, 1.5; NaCl, 75; Na2HPO4, 9.6; Na2HPO4.7H2O, 8; MgSO4, 2; glucose, 5; HEPES, 10; pH 7.4). Cells were isolated by enzymatic dissociation as previously described with minor modifications (Klockner and Isenberg, Pflugers Arch. (1985), 405, 329-339), hereby incorporated by reference. The bladder was cut into small sections and incubated in 5 mL of the Kreb's solution containing 1 mg/mL collagenase (Sigma, St. Louis, Mont.) and 0.2 mg/mL pronase (Calbiochem, La Jolla, Calif.) with continuous stirring in a cell incubator for 30 minutes. The mixture was then centrifuged at 1300× g for 5 minutes, and the pellet resuspended in Dulbecco's PBS (GIBCO, Gaithersburg, Md.) and recentrifuged to remove residual enzyme. The cell pellet was resuspended in 5 mL growth media (composition: Dulbecco's modified Eagle's medium supplemented with 10% fetal bovine serum, 100 units/mL penicillin, 100 units/mL streptomycin and […] amphotericin B) and further dissociated by pipetting the suspension through a flame-polished Pasteur pipette and passing it through a polypropylene mesh membrane (Spectrum, Houston, Tex.). The cell density was adjusted to 100,000 cells/mL by resuspension in growth media. Cells were plated in clear-bottomed black 96-well plates (Packard) for membrane potential studies at a density of 20,000 cells/well and maintained in a cell incubator with 90% air:10% CO2 until confluent. Cells were confirmed to be of smooth muscle type by cytoskeletal staining using a monoclonal mouse anti human-α-smooth muscle actin (Biomeda, Foster City, Calif.).
Functional activity at potassium channels was measured by evaluating changes in membrane potential using the bis-oxonol dye DiBAC(4)3 (Molecular Probes) in a 96-well cell-based kinetic assay system, Fluorescent Imaging Plate Reader (FLIPR) (K. S. Schroeder et al., J. Biomed. Screen., v. 1 pp. 7581 (1996)), hereby incorporated by reference. DiBAC(4)3 is an anionic potentiometric probe which partitions between cells and extracellular solution in a membrane potential-dependent manner. With increasing membrane potential (for example, K^+ depolarization), the probe further partitions into the cell; this is measured as an increase in fluorescence due to dye interaction with intracellular lipids and proteins. Conversely, decreasing membrane potential (hyperpolarization by potassium channel openers) evokes a decrease in fluorescence.
Confluent guinea-pig urinary bladder cells cultured in black clear-bottomed 96-well plates were rinsed twice with […] assay buffer (composition, mM: HEPES, 20; NaCl, 120; KCl, 2; CaCl2, 2; MgCl2, 1; glucose, 5; pH 7.4 at 25° C.) containing 5 μM DiBAC(4)3 and incubated with […] of the buffer in a cell incubator for 30 minutes at 37° C. to ensure dye distribution across the membrane. After recording the baseline fluorescence for 5 minutes, the reference or test compounds, prepared at 10 times the concentration in the assay buffer, were added directly to the wells. Changes in fluorescence were monitored for an additional 25 minutes. Hyperpolarization responses were corrected for any background noise and were normalized to the response observed with 10 μM of the reference compound P1075 (assigned as 100%), a potent opener of smooth muscle KATP channels (Quast et al., Mol. Pharmacol., v. 43 pp. 474-481 (1993)).
Routinely, five concentrations of P1075 or test compounds (log or half-log dilutions) were evaluated and the maximal steady-state hyperpolarization values (expressed as % relative to P1075) plotted as a function of concentration. […]

[2] = test system: tissue strips obtained from Landrace pig bladders; assay: Functional potassium channel opening activity in isolated bladder strips (field-stimulated twitch); settings: for EC50: amount causing 50% of the agent's maximal response, read-out: ED50 (the source's name)
Protocol: Compounds were evaluated for functional potassium channel opening activity using tissue strips obtained from Landrace pig bladders.
Landrace pig bladders were obtained from female Landrace pigs of 930 kg. Landrace pigs were euthanized with an intraperitoneal injection of pentobarbital solution, Somlethal®, J. A. Webster Inc., Sterling Mass. The entire bladder was removed and immediately placed into Krebs Ringer bicarbonate solution (composition, mM: NaCl, 120; NaHCO3, 20; dextrose, 11; KCl, 4.7; CaCl2, 2.5; MgSO4, 1.5; KH2PO4, 1.2; K2EDTA, 0.01, equilibrated with 5% CO2/95% O2pH 7.4 at 37° C.). Propranolol (0.004 mM) was included in all of the assays to block β-adrenoceptors. The trigonal and dome portions were discarded. Strips 3-5 mm wide and 20 mm long were prepared from the remaining tissue cut in a circular fashion. The mucosal layer was removed. One end was fixed to a stationary glass rod and the other to a Grass FT03 transducer at a basal preload of 1.0 gram. Two parallel platinum electrodes were included in the stationary glass rod to provide field stimulation of 0.05 Hz, 0.5 milli-seconds at 20 volts. This low frequency stimulation produced a stable twitch response of 100-500 centigrams. Tissues were allowed to equilibrate for at least 60 minutes and primed with 80 mM KCl. A control concentration response curve (cumulative) was generated for each tissue using the potassium channel opener P1075 as the control agonist. […] After a 60 minute rinsing period, a concentration response curve (cumulative) was generated for the test agonist in the same fashion as that used for the control agonist P1075. The maximal efficacy of each compound (expressed as % relative to P1075) is reported. The amount of agent necessary to cause 50% of the agent's maximal response (ED50) was calculated using “ALLFIT” (DeLean et al., Am. J. Physiol., 235, E97 (1980)), hereby incorporated by reference. Agonist potencies were also expressed as an index relative to P1075. The index was calculated by dividing the ED50 for P1075 by the ED50 for the test agonist in a given tissue. Each tissue was used for only one test agonist, and the indices obtained from each tissue were averaged to provide an average index of potency.

- EC50 ([1]; Cavia porcellus): 0.18 µM
- EC50 ([2]; Sus scrofa, Landrace pig bladder strips): 5.8 µM
Structure (SMILES): C=CCC(C)(C)C(NC(=O)c1ccc(Cl)cc1)Nc1c(Nc2cccnc2)c(=O)c1=O (stereo not drawn) [Example 17, 4-chloro-N-(-1-{[3,4-dioxo-2-(3-pyridinylamino)-1-cyclobuten-1-yl]amino}-2,2-dimethyl-4-pentenyl)benzamide]
- Emax ([2]; Sus scrofa, maximal efficacy relative to P1075, Landrace pig bladder strips, field stimulation 0.05 Hz): 92%

- EC50 [1]: 0.51 µM
- EC50 ([2]; Landrace pig bladder strips): 17 µM
Structure (SMILES): CC(C)(Cc1ccccc1)C(NC(=O)c1ccc(Cl)cc1)Nc1c(Nc2cccnc2)c(=O)c1=O (stereo not drawn) [Example 18]
- Maximal Response (% P1075) ([1]; maximal steady-state hyperpolarization, normalized to 10 μM P1075 (100%), GPB cells): 97 % P1075
- Index ([2]; ED50 for P1075 divided by ED50 for the test agonist in a given tissue, averaged): 0.055
- Efficacy (% P1075) ([2]; maximal efficacy relative to P1075, Landrace pig bladder strips, field stimulation 0.05 Hz): 62 % P1075

- melting point: 177 to 178 °C
Structure (SMILES): CC(C)(C)C(NC(=O)c1ccc(I)cc1)NS(=O)(=O)Nc1cccnc1 (stereo not drawn) [Example 34, N-(2,2-dimethyl-1-{[(3-pyridinylamino)sulfonyl]amino}propyl)-4iodobenzamide]
